Experimental data taken from ChEMBL document CHEMBL4483862, “Open-source discovery of chemical leads for next-generation chemoprotective antimalarials” (2018).

System: Plasmodium berghei
Test: Luciferase/luciferin-expressing antifolate-resistant parasites were used to infect a culture of HepG2 cells that were pre-incubated with compounds. Infected hepatocytes emit light due to the luciferase reaction. Assay results are presented as the percent inhibition of light emission compared to control. […]
Assay type: functional
Conditions: sporozoite; for IC90: read-out: LUCIFERASE INFECTION ASSAY - IC90

## CC(C)(C)c1ccc(C(=O)NCc2ccco2)cc1
PBLUC_HILL_SLOPE 5.38, PBLUC_R_SQUARED 0.421, read-out: LUCIFERASE INFECTION ASSAY - IC50
  IC50: 6.91 µM
  IC90: 10.4 µM

## CCOC(=O)C1=C(c2ccccc2)N=C(N)NC1c1ccc(OCc2ccc(Cl)cc2)c(OC)c1 (stereo not given)
PBLUC_HILL_SLOPE 5.7, PBLUC_R_SQUARED 0.538, read-out: LUCIFERASE INFECTION ASSAY - IC50
  IC50: 7.1 µM
  IC90: > 10 µM

## O=C(Nc1cccc(C(F)(F)F)c1)n1cc(-c2ccccn2)c(N2CCOCC2)n1
PBLUC_HILL_SLOPE 5.81, PBLUC_R_SQUARED 0.476, read-out: LUCIFERASE INFECTION ASSAY - IC50
  IC50: 5.62 µM
  IC90: > 7.91 µM

## CCN(c1ccccc1)S(=O)(=O)c1ccc(Cl)c(NC(=O)Nc2ccc(Cl)cc2C#N)c1
PBLUC_HILL_SLOPE 5.41, PBLUC_R_SQUARED 0.801, read-out: LUCIFERASE INFECTION ASSAY - IC50
  IC50: 4.71 µM
  IC90: 7.06 µM

## COc1cc(/C=N/NC(=S)NC2CC3CC2C2C=CCC32)ccc1O (stereo not given)
PBLUC_HILL_SLOPE 5.25, PBLUC_R_SQUARED 0.0239, read-out: LUCIFERASE INFECTION ASSAY - IC50
  IC50: > 9.23 µM
  IC90: > 9.23 µM

## CCCNC(=O)C1(C)CCN(Cc2ccc3ccccc3c2Br)C1 (stereo not given)
PBLUC_HILL_SLOPE 5.63, PBLUC_R_SQUARED 0.42, read-out: LUCIFERASE INFECTION ASSAY - IC50
  IC50: 5.79 µM
  IC90: > 8.48 µM

## c1csc(-c2cn3c(-c4ccncc4)cnc3cn2)c1
PBLUC_HILL_SLOPE 5.41, PBLUC_R_SQUARED 0.452, read-out: LUCIFERASE INFECTION ASSAY - IC50
  IC50: 10.5 µM
  IC90: > 11.9 µM

## CCOC(=O)c1ccc(Oc2nc3ccccc3nc2C(C#N)C(=O)OC)cc1 (stereo not given)
PBLUC_HILL_SLOPE 5.75, PBLUC_R_SQUARED 0.407, read-out: LUCIFERASE INFECTION ASSAY - IC50
  IC50: 5.19 µM
  IC90: 7.6 µM

## Cc1ccc2c(Cl)cc(Cl)c(OCN3C(=O)c4ccccc4C3=O)c2n1
PBLUC_HILL_SLOPE 5.8, PBLUC_R_SQUARED 0.551, read-out: LUCIFERASE INFECTION ASSAY - IC50
  IC50: 3.99 µM
  IC90: 5.83 µM

## COc1cc(NC(=O)N2Cc3cnc(Nc4ccc(Oc5ccccc5)cc4)nc3C2)cc(OC)c1OC
PBLUC_HILL_SLOPE 5.21, PBLUC_R_SQUARED 0.0507, read-out: LUCIFERASE INFECTION ASSAY - IC50
  IC50: 5.26 µM
  IC90: > 6.43 µM

## COC(=O)c1cccc(C(=O)Nc2nccn2Cc2ccccc2)c1
PBLUC_HILL_SLOPE 5.71, PBLUC_R_SQUARED 0.673, read-out: LUCIFERASE INFECTION ASSAY - IC50
  IC50: 6.33 µM
  IC90: 9.3 µM

## Cc1c(C(=O)OCc2ccc(C(C)C)cc2)sc2nc3n(c(=O)c12)CCC3
PBLUC_HILL_SLOPE 5.57, PBLUC_R_SQUARED 0.253, read-out: LUCIFERASE INFECTION ASSAY - IC50
  IC50: 6.97 µM
  IC90: > 10 µM

## O=C(CSc1nc2sc3c(c2c(=O)n1-c1cccc(C(F)(F)F)c1)CCCC3)NC12CC3CC(CC(C3)C1)C2
PBLUC_HILL_SLOPE 5.84, PBLUC_R_SQUARED 0.777, read-out: LUCIFERASE INFECTION ASSAY - IC50
  IC50: 5.41 µM
  IC90: 7.89 µM

## C=CCn1c(SCC(=O)c2cc(C)n(-c3cc(F)ccc3F)c2C)nc2scc(-c3ccccc3)c2c1=O
PBLUC_HILL_SLOPE 5.29, PBLUC_R_SQUARED 0.561, read-out: LUCIFERASE INFECTION ASSAY - IC50
  IC50: 5.65 µM
  IC90: 8.56 µM

## Cc1nn(Cc2ccccc2Cl)c(C)c1C(=O)Nc1nc(-c2ccccn2)cs1
PBLUC_HILL_SLOPE 5.44, PBLUC_R_SQUARED 0.0706, read-out: LUCIFERASE INFECTION ASSAY - IC50
  IC50: 4.34 µM
  IC90: 6.51 µM

## O=C(c1cc(-c2ccccc2)nc2ccccc12)N1N=CCC1(O)C(F)(F)F (stereo not given)
PBLUC_HILL_SLOPE 5.58, 3.40, PBLUC_R_SQUARED 0.0168, 0.865, read-out: LUCIFERASE INFECTION ASSAY - IC50
  IC50: 4.5 µM
  IC90: 8.59 µM

## C/N=c1\scc(-c2ccccc2OC)n1/N=C/c1ccc[nH]1
PBLUC_HILL_SLOPE 6.06, PBLUC_R_SQUARED 0.259, read-out: LUCIFERASE INFECTION ASSAY - IC50
  IC50: 0.0426 µM
  IC90: 0.0612 µM

## Cc1c(C)c(C)c(S(=O)(=O)Oc2ccccc2N2CC(C)OC(C)C2)c(C)c1C (stereo not given)
PBLUC_HILL_SLOPE 5.73, PBLUC_R_SQUARED 0.021, read-out: LUCIFERASE INFECTION ASSAY - IC50
  IC50: > 7.9 µM
  IC90: > 7.9 µM

## Clc1ccccc1-c1cn2c(-c3ccncc3)cnc2cn1
PBLUC_HILL_SLOPE 5.69, PBLUC_R_SQUARED 0.296, read-out: LUCIFERASE INFECTION ASSAY - IC50
  IC50: 10.2 µM
  IC90: > 10.8 µM

## CCC(C)NC(=O)c1c(NC(=O)c2ccc(C)cc2)nc2ccc(C)cn12 (stereo not given)
PBLUC_HILL_SLOPE 5.31, PBLUC_R_SQUARED 0.131, read-out: LUCIFERASE INFECTION ASSAY - IC50
  IC50: 5.08 µM
  IC90: 7.69 µM

## CCN(C(=O)c1ccc(NC(=O)C2CC2)s1)c1ccccc1C
PBLUC_HILL_SLOPE 5.48, PBLUC_R_SQUARED 0.146, read-out: LUCIFERASE INFECTION ASSAY - IC50
  IC50: 9.18 µM
  IC90: > 10 µM

## O=C(NCc1sccc1Cl)Nc1cccc(Cl)c1
PBLUC_HILL_SLOPE 5.24, PBLUC_R_SQUARED 0.165, read-out: LUCIFERASE INFECTION ASSAY - IC50
  IC50: 7.24 µM
  IC90: > 11 µM

## CC(=O)c1cccc(-c2cnc3cnc(-c4ccc(CO)cc4)cn23)c1
PBLUC_HILL_SLOPE 6.05, PBLUC_R_SQUARED 0.635, read-out: LUCIFERASE INFECTION ASSAY - IC50
  IC50: 7.62 µM
  IC90: > 9.61 µM

## O=C(CCc1c(-c2ccc(F)cc2)[nH]c2ccc(F)cc12)N1CCN(c2ccncc2)CC1
PBLUC_HILL_SLOPE 5.15, PBLUC_R_SQUARED 0.285, read-out: LUCIFERASE INFECTION ASSAY - IC50
  IC50: 5.53 µM
  IC90: 8.48 µM

## Cc1cc(C)n(-c2nc(C)c(Br)c(NC(C)c3ccccc3)n2)n1 (stereo not given)
PBLUC_HILL_SLOPE 5.33, PBLUC_R_SQUARED 0.256, read-out: LUCIFERASE INFECTION ASSAY - IC50
  IC50: 5.95 µM
  IC90: > 8.54 µM

## CC(C)Oc1cccc(-c2cn3c(-c4ccc(C(=O)NC5CC5)cc4)cnc3cn2)c1
PBLUC_HILL_SLOPE 5.31, PBLUC_R_SQUARED 0.43, read-out: LUCIFERASE INFECTION ASSAY - IC50
  IC50: 4.75 µM
  IC90: 7.18 µM

## CCC(Nc1nc(C(F)(F)F)nc2ccccc12)c1ccc(Br)cc1 (stereo not given)
PBLUC_HILL_SLOPE 5.54, PBLUC_R_SQUARED 0.0475, read-out: LUCIFERASE INFECTION ASSAY - IC50
  IC50: > 10 µM
  IC90: > 10 µM

## CN(C)CCNC(=O)c1cccc(-c2cnc3ccc(-c4cccc(F)c4)nn23)c1
PBLUC_HILL_SLOPE 5.28, PBLUC_R_SQUARED 0.0552, read-out: LUCIFERASE INFECTION ASSAY - IC50
  IC50: 6.13 µM
  IC90: 9.29 µM

## c1ccc2[nH]c(CN3CCN(Cc4csc5ccccc45)CC3)nc2c1
PBLUC_HILL_SLOPE 5.23, 12.9, PBLUC_R_SQUARED 0.488, 0.411, read-out: LUCIFERASE INFECTION ASSAY - IC50
  IC50: 9.2 µM
  IC90: > 10 µM

## NC(=O)NC(CC(=O)OCC(=O)Nc1ccccc1-c1ccccc1)c1ccc(Cl)cc1 (stereo not given)
PBLUC_HILL_SLOPE 5.92, PBLUC_R_SQUARED 0.131, read-out: LUCIFERASE INFECTION ASSAY - IC50
  IC50: > 10 µM
  IC90: > 10 µM

## CCCNC(=O)c1c(NC(=O)c2ccc(C)cc2)nc2ccccn12
PBLUC_HILL_SLOPE 5.82, PBLUC_R_SQUARED 0.26, read-out: LUCIFERASE INFECTION ASSAY - IC50
  IC50: 6.58 µM
  IC90: 9.6 µM

## OCc1ccc(-c2cnc3cnc(-c4cccnc4)cn23)cc1
PBLUC_HILL_SLOPE 5.76, PBLUC_R_SQUARED 0.27, read-out: LUCIFERASE INFECTION ASSAY - IC50
  IC50: 5.27 µM
  IC90: 7.72 µM

## Cc1[nH]c2ccccc2c1C(=O)C(=O)Nc1ccc(N2CCCCC2)nc1
PBLUC_HILL_SLOPE 5.45, PBLUC_R_SQUARED 0.664, read-out: LUCIFERASE INFECTION ASSAY - IC50
  IC50: 6.56 µM
  IC90: 9.82 µM

## N#Cc1ccc(Cl)cc1NC(=O)CNc1cc(C(F)(F)F)ccc1N1CCCC1
PBLUC_HILL_SLOPE 5.67, PBLUC_R_SQUARED 0.48, read-out: LUCIFERASE INFECTION ASSAY - IC50
  IC50: 2.82 µM
  IC90: 4.15 µM

## Cc1nn2c(nc(Sc3nnnn3C(C)C)c3ccccc32)c1Cl
PBLUC_HILL_SLOPE 6.07, PBLUC_R_SQUARED 0.112, read-out: LUCIFERASE INFECTION ASSAY - IC50
  IC50: 8.31 µM
  IC90: > 10 µM

## O=C(Nc1ccc(-c2nc3ccccc3[nH]2)cc1)c1cccc(N2CCCS2(=O)=O)c1
PBLUC_HILL_SLOPE 5.48, 3.67, PBLUC_R_SQUARED 0.355, 0.637, read-out: LUCIFERASE INFECTION ASSAY - IC50
  IC50: 5.88 µM
  IC90: 9.62 µM

## CCCOc1cccc(NC(=O)c2cc(CC(C)C)oc2C)c1
PBLUC_HILL_SLOPE 5.71, PBLUC_R_SQUARED 0.294, read-out: LUCIFERASE INFECTION ASSAY - IC50
  IC50: 6.86 µM
  IC90: 10.1 µM

## CN(C)C(=O)c1cccc(-c2cn3c(-c4ccc5ncccc5c4)cnc3cn2)c1
PBLUC_HILL_SLOPE 5.92, PBLUC_R_SQUARED 0.583, read-out: LUCIFERASE INFECTION ASSAY - IC50
  IC50: 5.83 µM
  IC90: > 8.39 µM

## COc1ccc(CCn2nc(C(=O)NC3CC3)c3c2CCN(C(=O)c2cc(C)n[nH]2)C3)cc1
PBLUC_HILL_SLOPE 5.54, PBLUC_R_SQUARED 0.701, read-out: LUCIFERASE INFECTION ASSAY - IC50
  IC50: 3.31 µM
  IC90: 4.91 µM

## COc1ccc(-c2cnc3ccc(NCc4cccc(Cl)c4)nn23)cn1
PBLUC_HILL_SLOPE 5.4, PBLUC_R_SQUARED 0.229, read-out: LUCIFERASE INFECTION ASSAY - IC50
  IC50: 5.13 µM
  IC90: 7.71 µM
